Where a name gives a salt, the structure may show the parent alone. Read-outs that look alike come from different tables or passages of the source.
Tests used:
Experiment in all cases: Virus pre-incubation, plaque formation in TMPRSS cells
Assay type in all cases: cell-based
[1] = test system: SARS-CoV-2 Delta variant; details: 10 mM; for inhibition at 10000 µM: read-out: inhibition / inactivation
[2] = test system: SARS-CoV-2 variant alpha; details: Severe acute respiratory syndrome coronavirus 2, 2 h; 5 mM, 120 min incubation
[3] = test system: SARS-CoV-2 variant gamma; details: Severe acute respiratory syndrome coronavirus 2, 2 h; 5 mM, 120 min incubation
[4] = test system: SARS-CoV-2 variant beta; details: Severe acute respiratory syndrome coronavirus 2, 2 h; 5 mM, 120 min incubation

Compound	inhibition / inactivation ([1]; 15 min incubation, sustained through 90 minutes)	inhibition / inactivation ([1]; 120 min incubation)	inhibition at 10000 µM ([1]; Severe acute respiratory syndrome coronavirus 2, 2 h, 120 min incubation)	inhibition at 10000 µM ([1]; Severe acute respiratory syndrome coronavirus 2, 15 min incubation, sustained through 90 minutes)	inhibition at 5000 µM [2]	inhibition at 5000 µM [3]	inhibition at 5000 µM [4]
2-aminoethanethiol [cysteamine]	85%	100%	–	–	–	–	–
NCCS [cysteamine HCl]	–	–	100%	85%	85 to 95%	85 to 95%	85 to 95%
